Experimental data reported in ChEMBL document CHEMBL3351894, “Development and evaluation of ST-1829 based on 5-benzylidene-2-phenylthiazolones as promising agent for anti-leukotriene therapy” (Eur J Med Chem, 2015).
Converted amounts (≈) assume the structure as drawn. The source made the active and inactive calls. No cut-off for these calls is given here.

How the values were obtained:
[1] = Cytotoxicity against human U937 cells assessed as cell viability after 48 hrs by WST-1 assay; type: cell-based; settings: U-937, 48 h
[2] = molecular target: T1, Polyunsaturated fatty acid lipoxygenase ALOX15 (Homo sapiens, UniProt P16050); assay: Inhibition of 15-LO1 (unknown origin)
T1 sequence (P16050 whole entry): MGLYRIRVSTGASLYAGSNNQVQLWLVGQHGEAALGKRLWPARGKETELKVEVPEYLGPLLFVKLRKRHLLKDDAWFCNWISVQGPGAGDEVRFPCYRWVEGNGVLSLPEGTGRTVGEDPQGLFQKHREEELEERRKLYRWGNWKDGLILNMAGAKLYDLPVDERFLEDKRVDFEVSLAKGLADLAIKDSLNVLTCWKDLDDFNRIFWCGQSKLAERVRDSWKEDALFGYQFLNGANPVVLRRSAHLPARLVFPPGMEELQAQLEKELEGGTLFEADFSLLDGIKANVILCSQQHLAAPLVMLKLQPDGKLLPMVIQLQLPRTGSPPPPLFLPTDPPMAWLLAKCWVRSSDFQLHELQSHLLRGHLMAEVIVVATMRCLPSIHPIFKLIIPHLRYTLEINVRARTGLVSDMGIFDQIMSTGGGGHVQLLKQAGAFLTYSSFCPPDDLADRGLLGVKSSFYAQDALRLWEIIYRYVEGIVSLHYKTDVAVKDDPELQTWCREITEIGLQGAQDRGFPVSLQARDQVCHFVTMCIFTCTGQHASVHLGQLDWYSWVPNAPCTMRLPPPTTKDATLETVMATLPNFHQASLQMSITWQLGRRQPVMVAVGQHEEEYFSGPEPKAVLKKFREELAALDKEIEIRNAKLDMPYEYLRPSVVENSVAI

[3] = Solubility of the compound in DMSO at RT; type: physicochemical
[4] = molecular target: T2, Polyunsaturated fatty acid 5-lipoxygenase (Homo sapiens, UniProt P09917); assay: Inhibition of 5-LO in human PMNL using arachidonic acid as substrate assessed as product formation incubated for 15 mins prior to substrate addition measured after 10 mins by HPLC analysis
T2 sequence (P09917 whole entry): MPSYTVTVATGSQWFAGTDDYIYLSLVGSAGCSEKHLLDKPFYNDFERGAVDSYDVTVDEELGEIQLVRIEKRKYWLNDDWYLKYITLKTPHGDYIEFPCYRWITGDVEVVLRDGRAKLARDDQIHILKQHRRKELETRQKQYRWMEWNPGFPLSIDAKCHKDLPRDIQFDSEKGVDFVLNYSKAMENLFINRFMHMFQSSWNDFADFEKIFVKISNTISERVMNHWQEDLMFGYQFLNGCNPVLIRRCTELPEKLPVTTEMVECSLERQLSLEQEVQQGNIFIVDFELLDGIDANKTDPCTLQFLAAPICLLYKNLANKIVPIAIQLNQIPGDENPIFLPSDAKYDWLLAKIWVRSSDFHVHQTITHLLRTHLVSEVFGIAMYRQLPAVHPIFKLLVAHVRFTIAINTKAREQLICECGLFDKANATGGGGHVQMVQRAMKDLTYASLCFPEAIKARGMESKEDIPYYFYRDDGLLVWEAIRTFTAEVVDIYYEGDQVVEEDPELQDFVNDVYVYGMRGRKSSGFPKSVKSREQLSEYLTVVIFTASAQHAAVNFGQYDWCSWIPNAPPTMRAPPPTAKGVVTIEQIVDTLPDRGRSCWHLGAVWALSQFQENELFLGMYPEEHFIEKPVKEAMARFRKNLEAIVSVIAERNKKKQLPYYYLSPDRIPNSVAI

[5] = molecular target: T3, Polyunsaturated fatty acid 5-lipoxygenase (Homo sapiens) (UniProt P09917); assay: Inhibition of 5-LO in human PMNL using arachidonic acid as substrate assessed as product formation at 1 to 10 uM incubated for 15 mins prior to substrate addition measured after 10 mins by HPLC analysis in presence of 10% fetal calf serum
T3 sequence (whole entry): T2 sequence (P09917 whole entry)

[6] = molecular target: T4, Polyunsaturated fatty acid lipoxygenase ALOX12 (Homo sapiens, UniProt P18054); assay: Inhibition of 12-LO (unknown origin)
T4 sequence (P18054 whole entry): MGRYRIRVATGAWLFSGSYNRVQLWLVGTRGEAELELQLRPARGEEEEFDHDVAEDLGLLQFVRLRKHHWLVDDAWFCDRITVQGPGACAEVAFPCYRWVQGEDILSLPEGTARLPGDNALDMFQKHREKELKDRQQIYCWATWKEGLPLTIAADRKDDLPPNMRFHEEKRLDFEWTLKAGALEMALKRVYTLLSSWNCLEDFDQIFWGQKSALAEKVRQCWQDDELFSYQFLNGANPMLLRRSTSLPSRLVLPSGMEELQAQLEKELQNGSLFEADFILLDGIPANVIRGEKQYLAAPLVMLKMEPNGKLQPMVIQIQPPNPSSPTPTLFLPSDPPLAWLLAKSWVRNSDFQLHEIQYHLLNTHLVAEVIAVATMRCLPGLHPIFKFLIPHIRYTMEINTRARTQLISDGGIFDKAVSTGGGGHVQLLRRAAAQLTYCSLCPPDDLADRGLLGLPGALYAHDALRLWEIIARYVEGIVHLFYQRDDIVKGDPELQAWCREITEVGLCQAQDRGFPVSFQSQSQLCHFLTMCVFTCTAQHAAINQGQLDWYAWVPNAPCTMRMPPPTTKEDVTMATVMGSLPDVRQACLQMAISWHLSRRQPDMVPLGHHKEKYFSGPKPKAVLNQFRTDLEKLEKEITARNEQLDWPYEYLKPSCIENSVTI

[7] = Solubility of the compound in PBS at pH 7.4 at RT; type: physicochemical
[8] = molecular target: T2, Polyunsaturated fatty acid 5-lipoxygenase; assay: Inhibition of 5-LO in human PMNL S100 extract using arachidonic acid as substrate incubated for 15 mins prior to substrate addition measured after 10 mins by HPLC analysis
[9] = Cytotoxicity against human U937 cells at 30 uM after 48 hrs by LDH assay; type: cell-based; settings: u-937, 48 h

With COc1ccc(Cc2sc(-c3ccc(Cl)cc3)nc2O)cc1 the IC50 [1] was > 30000 nM, the IC50 [2] was > 10000 nM and the solubility [3] was 100 mM (≈ 33.2 mg/mL). The IC50 [4] was 140 nM, the inhibition [5] was “inactive” and the IC50 [6] was > 10000 nM. It also gave a solubility [7] of 0.08 mM (≈ 0.0265 mg/mL), an IC50 [8] of 30 nM and an Activity [9] of 4.09%.
